According to patent US12303541B2, “Erodium crassifolium L'Her plant extracts and uses thereof” (priority 2015, dated 2025):

Test system: IL-8
Experiment: IL-8 levels in TNF-α treated HaCaT cells (EE, fractions, pure compounds)
Format: cell-based, human
Settings: for reduction of IL-8 levels by individual pure compounds: tested separately at the concentration present in comb-1, HaCaT
Procedure: After incubation, cell excitation was performed with recombinant human tumor necrosis factor-α (TNF-α, PeproTech, 300-01A, USA). Cultures in each well were treated with a final concentration of 50 ng/mL of TNFα and 50 μL plant extract. Three different controls were included in all experiments: (a) non-treated cells, with neither TNF-α nor plant extracts, (b) cells treated with TNF-α alone, (c) cells treated with TNF-α and the solvent (7% ethanol). The supernatant was collected, and the level of IL-8 was measured 16 h post-treatment using the commercial Human CXCL8/IL-8 DuoSet ELISA kit (R&D Systems, DY208-05, USA) according to the manufacturer's protocol. IL-8 is a common biomarker for inflammatory skin diseases. 16 h of TNF-α exposure induce IL-8 levels. Dexamethasone (Sigma-Aldrich, D4902, USA) was used as a positive control.

Row | Compound | IL-8 levels (17.6 μg/mL) | IL-8 reduction activity (all examined concentrations of pure standard) | reduction of IL-8 levels by individual pure compounds | IL-8, % of TNF-α activated cells (100 μM, HaCaT) [%] | level of IL-8 (100 μM, TNF-α 50 ng/mL, 16 h, HaCaT) [pg/mL]
1 | Oc1cc(O)c2c(c1)O[C@H](c1cc(O)c(O)c(O)c1)[C@H](O)C2 [EGC, (−)-Epigallocatechin] | led to increased IL-8 levels | None of the examined concentrations of pure standard EGC showed any significant IL-8 reduction activity | inactive for reduction of IL-8 levels |  | 
2 | C[C@@H]1C[C@H]2[C@@H]3CCC4=CC(=O)C=C[C@]4(C)[C@@]3(F)[C@@H](O)C[C@]2(C)[C@@]1(O)C(=O)CO [dexamethasone, Dexamethasone] |  |  |  | 59.4 | 104.0 ± 3.0
3 | O=C(O)c1cc(O)c(O)c(O)c1 [gallic acid] |  |  | inactive for reduction of IL-8 levels |  | 
4 | catechin |  |  | inactive for reduction of IL-8 levels |  | 
